According to BindingDB's records for doi:10.1021/jm00164a044 (Niddk, 1990):

Test: Muscarinic acetylcholine receptor binding affinity was determined using [3H]NMS for NG108-15 neuroblastoma cells

| SMILES | Ki |
| --- | --- |
| CC(=O)N(C)CC#CCN1CCCC1 | 4500 nM |
| CN(CC#CCN1CCCC1)C(=O)CCCCCCCNC(=O)OC(C)(C)C | 1900 nM |
| CN(CC#CCN1CCCC1)C(=O)CCCCCCN | 3100 nM |
| CN(CC#CCN1CCCC1)C(=O)CCCCCCCN | 700 nM |
